Measured values: patent US20060252740A1 (priority 2005, published 2006)

Assays:
[1] = tested on: patients with advanced malignancies incl. metastatic melanoma; settings: cited from earlier work
[2] = tested on: patients with advanced solid tumors; settings: cited from earlier work
[3] = tested on: diffuse GFP positive MM lesions; settings: SCID/NOD mice; cited from earlier work
[4] = tested on: SKBr3 breast cancer cells; settings: cited from earlier work
breast cancer cells = settings: cited from earlier work
[5] = tested on: lung cancer cells with wild-type Rb; settings: cited from earlier work
NSCLC cells = settings: cited from earlier work
[6] = tested on: adult patients with solid tumors; settings: cited from earlier work
MEXF 276L melanoma cells = settings: cited from earlier work
[7] = tested on: patients with solid tumors and lymphomas; settings: cited from earlier work
[8] = tested on: colon adenocarcinoma cells; settings: cited from earlier work
[9] = Stability of diluted drug product; format: physicochemical; settings: drug product at a dilution of 1:7, room temperature
plasma protein = assay: Plasma protein binding, in vitro assays using human blood; format: in vitro ADME
cytochrome P450 enzymes = assay: In vitro metabolism studies; format: in vitro ADME
leukemia cells = settings: cited from earlier work
[10] = Dose limiting toxicity and drug-related toxicities in dose-escalating clinical trial; format: in vivo, human; settings: twice weekly for two out of three weeks (Days 1, 4, 8, 11; 21 day cycle)
Description: Eighteen patients were treated in accordance with this protocol.

[11] = tested on: patients with advanced solid tumors; settings: cited from earlier work; remark: listed apart in the source
[12] = highest dose level (450 mg/m^2)

C=CCNC1=C2C[C@@H](C)C[C@H](OC)[C@H](O)[C@@H](C)/C=C(\C)[C@H](OC(N)=O)[C@@H](OC)/C=C\C=C(/C)C(=O)NC(=CC1=O)C2=O [17-AAG, 17-Allylamino-17-demethoxygeldanamycin]
mean peak plasma level ([1]; 450 mg/m^2): 8,998 μg/L | mean volume of distribution ([1]; 450 mg/m^2): 142.6 L | induction of the co-chaperone protein Hsp70 ([1]; 320-450 mg/m^2/week): 8 of 9 | CDK4 depletion in tumor biopsies ([1]; at 24 hours): 8 out of 9 | Raf-1 depletion in tumor biopsies ([1]; at 24 hours): 4 out of 6 | period plasma 17-AAG concentrations remained above 120 nM [1, 12]: > 24 h | plasma 17-AAG concentrations [1, 12]: exceeded 10 μM | complete or partial responses ([1]; in vivo): No complete or partial responses | dose at which dose limiting toxicity was observed ([1]; once weekly, grade ¾ elevation of AST): 450 mg/m^2/week | stable disease ([1]; patients treated at 320-450 mg/m^2): two showed radiologically documented long term stable disease | dose limiting toxicities ([2]; at the 80 mg/m^2 dose, daily x5): hepatitis, abdominal pain, nausea, dyspnea | Cmax ([2]; read-out: plasma Cmax, 80 mg/m^2 dose level): 2700 nM | survival analysis [3]: significantly prolonged median overall survival | effect of exposure on client proteins [4]: depletion of erbB2 and destabilization of Raf-1 and mutant p53 | effect of exposure on client proteins (breast cancer cells): depletion of steroid receptors | effect of exposure on client proteins [5]: degradation of cdk4, cdk6, and cyclin E | effect of exposure on client proteins (NSCLC cells): depletion of erbB1 (EGFR) and erbB2 (p185) levels | maximum tolerated dose (MTD) and recommended Phase 2 dose ([6]; daily for 5 days every 3 weeks): 40 mg/m^2 | dose limiting toxicity ([6]; daily x5 schedule): reversible hepatotoxicity | objective tumor responses ([6]; doses up to 110 mg/m^2): No objective tumor responses | VZ ([6]; in vivo): 93 L/m^2 | Clearance ([6]; patients treated at 56 mg/m^2): 19.9 L/h/m^2 | average AUC ([6]; patients treated at 56 mg/m^2): 6,708 nM*h | effect of exposure on client proteins (MEXF 276L melanoma cells): depletion of Hsp90 and down-regulation of Raf-1 and erbB2 | levels of Hsp90 client proteins ([7]; during therapy): unchanged during therapy | objective tumor responses ([7]; to date): No objective tumor responses | MTD ([7]; weekly 17-AAG, 3 weeks out of a 4 week cycle): 308 mg/m^2 | dose reached without significant toxicity ([7]; weekly dosing): 112 mg/m^2 | effect of exposure on client proteins [8]: depletion of Raf-1, c-Akt, and Erk1/2 | stability after dilution [9]: up to 10 hours | protein bound in plasma (plasma protein): approximately 95% | enzymes involved in metabolism (cytochrome P450 enzymes): implicate the involvement of cytochrome P450 enzymes | effect of exposure on client proteins (leukemia cells): down-regulation of intracellular Bcr-Abl and c-Raf proteins and reduction of Akt kinase activity | 17-AAG dose employed without reaching dose limiting toxicity (DLT) in any treated patient [10]: 275 mg/m^2 | toxicities observed ([11]; dose of 395 mg/m^2): nausea and vomiting secondary to pancreatitis and grade 3 fatigue | 17-AAG metabolized to 17-AG (metabolic clearance) ([11]; population PK analysis): 46.4% | Vd (volume of distribution), central compartment ([11]; population PK analysis): 24.2 L | Vd (volume of distribution), peripheral compartment ([11]; population PK analysis): 89.6 L | objective tumor responses ([11]; to date): No objective tumor responses
